Results: the supplement of paper PMC13380429

Assays:
Details in all cases: 72 h
[1] = test system: HepG2; experiment: relative viability EC50 (midpoint between 100% and the lowest measured viability); higher = less toxic
[2] = test system: Calu-3; experiment: as above
[3] = test system: U2OS; experiment: as above
[4] = test system: Vero E6; experiment: as above
[5] = test system: Caco-2; experiment: as above
[6] = test system: HepG2; experiment: drug sensitivity score (DSS) for viability; higher = more toxic; extreme values may be limits of the assay
[7] = test system: Calu-3; experiment: as above
[8] = test system: U2OS; experiment: as above
[9] = test system: Vero E6; experiment: as above
[10] = test system: Caco-2; experiment: as above
[11] = test system: HepG2; experiment: cell viability relative to DMSO; higher = less toxic
[12] = test system: Calu-3; experiment: as above
[13] = test system: U2OS; experiment: as above
[14] = test system: Vero E6; experiment: as above
[15] = test system: Caco-2; experiment: as above

| Compound | relative viability EC50 [1] [µM] | relative viability EC50 [2] [µM] | relative viability EC50 [3] [µM] | relative viability EC50 [4] [µM] | relative viability EC50 [5] [µM] | drug sensitivity score [6] | drug sensitivity score [7] | drug sensitivity score [8] | drug sensitivity score [9] | drug sensitivity score [10] | cell viability ([11]; 1 nM) [%] | cell viability ([11]; 10 nM) [%] | cell viability ([11]; 100 nM) [%] | cell viability ([11]; 1000 nM) [%] | cell viability ([11]; 10000 nM) [%] | cell viability ([12]; 1 nM) [%] | cell viability ([12]; 10 nM) [%] | cell viability ([12]; 100 nM) [%] | cell viability ([12]; 1000 nM) [%] | cell viability ([12]; 10000 nM) [%] | cell viability ([13]; 1 nM) [%] | cell viability ([13]; 10 nM) [%] | cell viability ([13]; 100 nM) [%] | cell viability ([13]; 1000 nM) [%] | cell viability ([13]; 10000 nM) [%] | cell viability ([14]; 1 nM) [%] | cell viability ([14]; 10 nM) [%] | cell viability ([14]; 100 nM) [%] | cell viability ([14]; 1000 nM) [%] | cell viability ([14]; 10000 nM) [%] | cell viability ([15]; 1 nM) [%] | cell viability ([15]; 10 nM) [%] | cell viability ([15]; 100 nM) [%] | cell viability ([15]; 1000 nM) [%] | cell viability ([15]; 10000 nM) [%] |
| --- | --- | --- | --- | --- | --- | --- | --- | --- | --- | --- | --- | --- | --- | --- | --- | --- | --- | --- | --- | --- | --- | --- | --- | --- | --- | --- | --- | --- | --- | --- | --- | --- | --- | --- | --- |
| CC[C@H](/C=C/[C@@H](C)[C@H]1CC[C@H]2[C@@H]3CC=C4C[C@@H](O)CC[C@]4(C)[C@H]3CC[C@]12C)C(C)C [Stigmasterol (Stigmasterin)] | > 10 | > 10 | > 10 | > 10 | > 10 | 0 | 0 | 0 | 0 | 0 | 103 | 109 | 92.9 | 92.8 | 105 | 95 | 103 | 110 | 102 | 104 | 105 | 96.4 | 100 | 99.3 | 99.4 | 99 | 104 | 99.4 | 106 | 102 | 102 | 107 | 94.6 | 93.5 | 96.9 |
| Cc1ccc(-c2csc3ncnc(SCCC(=O)O)c23)cc1 [TTP-22] | > 10 | > 10 | > 10 | > 10 | > 10 | 0 | 0 | 0 | 0 | 0 | 103 | 92.3 | 95.6 | 100 | 108 | 101 | 87.5 | 93.4 | 99.4 | 96.3 | 97.3 | 102 | 99 | 99 | 104 | 97.1 | 94 | 102 | 101 | 102 | 103 | 96.5 | 97.3 | 95 | 97.4 |
| CCCCNc1ncc(-c2ccc(CN3CCOCC3)cn2)c(N[C@H]2CC[C@H](O)CC2)n1 [UNC2250] | > 10 | > 10 | > 10 | > 10 | > 10 | 0 | 0 | 0 | 0 | 0 | 108 | 102 | 109 | 97.7 | 100 | 102 | 102 | 94.7 | 108 | 98.9 | 97.9 | 98.8 | 99.9 | 100 | 94.8 | 101 | 99.6 | 94.5 | 91.9 | 99.1 | 97.1 | 103 | 105 | 108 | 103 |
| O=[N+]([O-])c1ccc2nc(COCc3nc4ccc([N+](=O)[O-])cc4[nH]3)[nH]c2c1 [VU591] | > 10 | > 10 | > 10 | > 10 | > 10 | 0 | 0 | 0 | 0 | 0 | 94.1 | 95.6 | 96.3 | 96.2 | 102 | 94.6 | 95.3 | 101 | 100 | 88.7 | 93.2 | 93.7 | 99.4 | 99 | 97.3 | 93.4 | 99.1 | 92.2 | 94.6 | 114 | 95.8 | 92.2 | 103 | 84.9 | 92.8 |
| CC(=O)c1ccc2c(c1)N(CCCN1CCN(CCO)CC1)c1ccccc1S2 [acetophenazine] | > 10 | > 10 | > 10 | > 10 | > 10 | 0 | 0 | 0 | 0.5 | 0 | 107 | 98.9 | 91.1 | 90.9 | 90.4 | 107 | 110 | 95.3 | 108 | 88.7 | 93.6 | 100 | 96.1 | 98.2 | 91.3 | 104 | 98.2 | 106 | 99 | 82.6 | 88.8 | 103 | 95.4 | 97.2 | 97.7 |
| O=C(c1ccc2nccnc2c1)N1CCCCC1 [ampalex] | > 10 | > 10 | > 10 | > 10 | > 10 | 0 | 0 | 0 | 0 | 0 | 103 | 99.6 | 108 | 102 | 102 | 97.4 | 107 | 95.5 | 96.6 | 100 | 98.3 | 102 | 94.8 | 99.7 | 102 | 96.3 | 96.8 | 98.8 | 93.1 | 94 | 97.6 | 100 | 94.5 | 103 | 101 |
| Nc1cc(Cl)c(N=C2NCCN2)c(Cl)c1 [apraclonidine] | > 10 | > 10 | > 10 | > 10 | > 10 | 0 | 0 | 0 | 0 | 0 | 96.5 | 96.7 | 105 | 92.3 | 96.5 | 93.6 | 100 | 106 | 106 | 98.2 | 96.4 | 101 | 94.8 | 101 | 102 | 108 | 89.1 | 101 | 95.2 | 98.6 | 104 | 92.7 | 110 | 111 | 96.6 |
